Data: patent US10167262B2, “Herbicidal substituted 3-arylpyrazoles” (FMC CORPORATION, priority 2014, dated 2019)

What was measured:
Type in all cases: in vivo
[1] = test system: barnyardgrass (Echinochloa crus-galli); assay: Test C pre-/postemergence greenhouse test, plant response rating 0-100
Procedure, shortened: (§1)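 Formulated in solvent with surfactant, test chemicals were sprayed on seeded loam/sand pots and, concurrently, on young plants 2–18 cm tall. Evaluation: visual, versus controls, day 13–15.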

[2] = test system: oilseed rape (Brassica napus); assay: as above
Procedure, shortened: as §1

[3] = test system: waterhemp (common waterhemp, Amaranthus rudis); assay: as above
Procedure, shortened: as §1

[4] = test system: barnyardgrass (Echinochloa crus-galli); assay: Test E pre-/postemergence greenhouse test, plant response rating 0-100; conditions: scale 0 to 100; for Plant response rating, Barnyardgrass: Postemergence; for Barnyardgrass plant response rating: Preemergence
Procedure, shortened: (§2)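 Greenhouse response on a 0 (none) to 100 (complete control) scale, assessed 14 to 21 days post-treatment. Soil-applied preemergence on silt loam; foliar postemergence on plants 2–18 cm high.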

[5] = test system: sandbur (southern sandbur, Cenchrus echinatus); assay: as above; conditions: scale 0 to 100; for Plant response rating, Sandbur: Postemergence; for Sandbur plant response rating: Preemergence
Procedure, shortened: as §2

[6] = test system: soybean (Glycine max); assay: as above; conditions: scale 0 to 100; for Plant response rating, Soybean: Postemergence; for Soybean plant response rating: Preemergence
Procedure, shortened: as §2

[7] = Postemergence, 125 g ai/ha, scale 0 to 100
[8] = Postemergence, 250 g ai/ha, scale 0 to 100
[9] = Postemergence, 500 g ai/ha, scale 0 to 100

With `O=C(c1ccccc1)c1cn(S(=O)(=O)CC(F)(F)F)nc1-c1cc(Cl)cc(Cl)c1` [Compound 3] as the molecule, how does the “Plant response rating (0 to 100), Barnyardgrass” value ([1]; Postemergence, 62 g ai/ha) read?
The value was 0.

What about the “Plant response rating, Barnyardgrass” value [1, 7] of the same molecule?
The value was 0.

What about the “Plant response rating, Barnyardgrass” value [1, 8] of the same molecule?
The value was 5.

What about the “Plant response rating, Barnyardgrass” value [1, 9] of the same molecule?
Its value is 10.

What about the “Plant response rating, Barnyardgrass” value ([1]; Preemergence, 62 g ai/ha) of the same molecule?
Its value is 0.

What about the “Plant response rating, Barnyardgrass” value ([1]; Preemergence, 125 g ai/ha) of the same molecule?
The value was 0.

And the “Plant response rating, Barnyardgrass” value ([1]; Preemergence, 250 g ai/ha)?
The value was 0.

What about the “Plant response rating, Barnyardgrass” value ([1]; Preemergence, 500 g ai/ha) of the same molecule?
Its value is 0.

And the “Plant response rating (0 to 100), Oilseed Rape” value ([2]; Postemergence, 62 g ai/ha)?
Its value is 60.

And the “Plant response rating (0 to 100), Oilseed Rape” value ([2]; Postemergence, 125 g ai/ha)?
The value was 70.

And the “Plant response rating, Oilseed Rape” value [2, 8]?
Its value is 80.

And the “Plant response rating, Oilseed Rape” value [2, 9]?
The value was 85.

What about the “Plant response rating, Oilseed Rape” value ([2]; Preemergence, 62 g ai/ha) of the same molecule?
The value was 40.

What about the “Plant response rating, Oilseed Rape” value ([2]; Preemergence, 125 g ai/ha) of the same molecule?
The value was 80.

And the “Plant response rating, Oilseed Rape” value ([2]; Preemergence, 250 g ai/ha)?
The value was 80.

And the “Plant response rating, Oilseed Rape” value ([2]; Preemergence, 500 g ai/ha)?
The value was 100.

What about the “Plant response rating (0 to 100), Waterhemp” value ([3]; Postemergence, 62 g ai/ha) of the same molecule?
Its value is 90.

What about the “Plant response rating (0 to 100), Waterhemp” value ([3]; Postemergence, 125 g ai/ha) of the same molecule?
The value was 90.

What about the “Plant response rating, Waterhemp” value [3, 8] of the same molecule?
Its value is 90.

What about the “Plant response rating, Waterhemp” value [3, 9] of the same molecule?
The value was 95.

What about the “Plant response rating, Waterhemp” value ([3]; Preemergence, 62 g ai/ha) of the same molecule?
The value was 100.

What about the “Plant response rating, Waterhemp” value ([3]; Preemergence, 125 g ai/ha) of the same molecule?
The value was 100.

And the “Plant response rating, Waterhemp” value ([3]; Preemergence, 250 g ai/ha)?
Its value is 100.

What about the “Plant response rating, Waterhemp” value ([3]; Preemergence, 500 g ai/ha) of the same molecule?
The value was 100.

What about the “Plant response rating, Waterhemp” value ([3]; Preemergence, 0 to 100 scale (0 no effect, 100 complete control), rate 500 g ai/ha) of the same molecule?
Its value is 100.

What about the “Plant response rating, Barnyardgrass” value ([4]; 31 g ai/ha) of the same molecule?
Its value is 0.

What about the “Plant response rating, Barnyardgrass” value ([4]; 62 g ai/ha) of the same molecule?
The value was 0.

What about the “Plant response rating, Barnyardgrass” value ([4]; 125 g ai/ha) of the same molecule?
Its value is 0.

And the “Plant response rating, Barnyardgrass” value ([4]; 250 g ai/ha)?
Its value is 0.

What about the “Plant response rating, Barnyardgrass” value ([4]; 500 g ai/ha) of the same molecule?
The value was 0.

What about the “Barnyardgrass plant response rating” value ([4]; 31 g ai/ha) of the same molecule?
The value was 0.

And the “Barnyardgrass plant response rating” value ([4]; 62 g ai/ha)?
Its value is 0.

And the “Barnyardgrass plant response rating” value ([4]; 125 g ai/ha)?
Its value is 0.

What about the “Barnyardgrass plant response rating” value ([4]; 250 g ai/ha) of the same molecule?
The value was 0.

What about the “Barnyardgrass plant response rating” value ([4]; 500 g ai/ha) of the same molecule?
The value was 0.

And the “Plant response rating, Sandbur” value ([5]; 31 g ai/ha)?
Its value is 0.

And the “Plant response rating, Sandbur” value ([5]; 62 g ai/ha)?
The value was 0.

And the “Plant response rating, Sandbur” value ([5]; 125 g ai/ha)?
The value was 0.

What about the “Plant response rating, Sandbur” value ([5]; 250 g ai/ha) of the same molecule?
The value was 0.

And the “Plant response rating, Sandbur” value ([5]; 500 g ai/ha)?
Its value is 0.

And the “Sandbur plant response rating” value ([5]; 31 g ai/ha)?
The value was 0.

And the “Sandbur plant response rating” value ([5]; 62 g ai/ha)?
The value was 0.

What about the “Sandbur plant response rating” value ([5]; 125 g ai/ha) of the same molecule?
The value was 15.

And the “Sandbur plant response rating” value ([5]; 250 g ai/ha)?
The value was 15.

And the “Sandbur plant response rating” value ([5]; 500 g ai/ha)?
The value was 90.

What about the “Plant response rating, Soybean” value ([6]; 31 g ai/ha) of the same molecule?
The value was 0.

What about the “Plant response rating, Soybean” value ([6]; 62 g ai/ha) of the same molecule?
Its value is 0.

What about the “Plant response rating, Soybean” value ([6]; 125 g ai/ha) of the same molecule?
The value was 0.

And the “Plant response rating, Soybean” value ([6]; 250 g ai/ha)?
The value was 0.

And the “Plant response rating, Soybean” value ([6]; 500 g ai/ha)?
Its value is 0.

And the “Soybean plant response rating” value ([6]; 31 g ai/ha)?
Its value is 0.

What about the “Soybean plant response rating” value ([6]; 62 g ai/ha) of the same molecule?
The value was 0.

What about the “Soybean plant response rating” value ([6]; 125 g ai/ha) of the same molecule?
The value was 0.

And the “Soybean plant response rating” value ([6]; 500 g ai/ha)?
The value was 0.

Which “Plant response rating (0 to 100), Barnyardgrass” value ([1]; Postemergence, 31 g ai/ha) does the source give for `O=C(c1cncc(F)c1)c1c[nH]nc1-c1cc(Cl)cc(Cl)c1` [Compound 19] here?
The value was 0.

And the “Plant response rating (0 to 100), Barnyardgrass” value ([1]; Postemergence, 62 g ai/ha)?
The value was 0.

And the “Plant response rating, Barnyardgrass” value [1, 7]?
Its value is 0.

What about the “Plant response rating, Barnyardgrass” value [1, 8] of the same molecule?
Its value is 0.

What about the “Plant response rating, Barnyardgrass” value ([1]; Preemergence, 31 g ai/ha) of the same molecule?
The value was 0.

What about the “Plant response rating, Barnyardgrass” value ([1]; Preemergence, 62 g ai/ha) of the same molecule?
The value was 0.

And the “Plant response rating, Barnyardgrass” value ([1]; Preemergence, 125 g ai/ha)?
Its value is 0.

And the “Plant response rating, Barnyardgrass” value ([1]; Preemergence, 250 g ai/ha)?
Its value is 0.

And the “Plant response rating (0 to 100), Oilseed Rape” value ([2]; Postemergence, 62 g ai/ha)?
Its value is 0.

And the “Plant response rating (0 to 100), Oilseed Rape” value ([2]; Postemergence, 125 g ai/ha)?
The value was 0.

And the “Plant response rating, Oilseed Rape” value [2, 8]?
The value was 5.

What about the “Plant response rating, Oilseed Rape” value ([2]; Preemergence, 31 g ai/ha) of the same molecule?
Its value is 0.

And the “Plant response rating, Oilseed Rape” value ([2]; Preemergence, 62 g ai/ha)?
Its value is 0.

And the “Plant response rating, Oilseed Rape” value ([2]; Preemergence, 125 g ai/ha)?
The value was 80.

And the “Plant response rating, Oilseed Rape” value ([2]; Preemergence, 250 g ai/ha)?
The value was 80.

And the “Plant response rating (0 to 100), Waterhemp” value ([3]; Postemergence, 62 g ai/ha)?
Its value is 65.

And the “Plant response rating (0 to 100), Waterhemp” value ([3]; Postemergence, 125 g ai/ha)?
Its value is 80.

And the “Plant response rating, Waterhemp” value [3, 8]?
The value was 95.

What about the “Plant response rating, Waterhemp” value ([3]; Preemergence, 62 g ai/ha) of the same molecule?
Its value is 100.

What about the “Plant response rating, Waterhemp” value ([3]; Preemergence, 125 g ai/ha) of the same molecule?
The value was 100.

What about the “Plant response rating, Waterhemp” value ([3]; Preemergence, 250 g ai/ha) of the same molecule?
Its value is 100.

For `CCOC(OCC)(c1cccs1)c1c[nH]nc1-c1cc(Cl)cc(Cl)c1` [Compound 27], which “Plant response rating (0 to 100), Barnyardgrass” value ([1]; Postemergence, 62 g ai/ha) is on record?
Its value is 0.

What about the “Plant response rating, Barnyardgrass” value [1, 7] of the same molecule?
Its value is 0.

And the “Plant response rating, Barnyardgrass” value [1, 8]?
Its value is 0.

What about the “Plant response rating, Barnyardgrass” value [1, 9] of the same molecule?
Its value is 10.

And the “Plant response rating, Barnyardgrass” value ([1]; Preemergence, 62 g ai/ha)?
Its value is 0.

What about the “Plant response rating, Barnyardgrass” value ([1]; Preemergence, 125 g ai/ha) of the same molecule?
Its value is 0.

What about the “Plant response rating, Barnyardgrass” value ([1]; Preemergence, 250 g ai/ha) of the same molecule?
The value was 0.

What about the “Plant response rating, Barnyardgrass” value ([1]; Preemergence, 500 g ai/ha) of the same molecule?
Its value is 0.

And the “Plant response rating (0 to 100), Oilseed Rape” value ([2]; Postemergence, 62 g ai/ha)?
The value was 45.

And the “Plant response rating (0 to 100), Oilseed Rape” value ([2]; Postemergence, 125 g ai/ha)?
The value was 50.

And the “Plant response rating, Oilseed Rape” value [2, 8]?
The value was 50.

What about the “Plant response rating, Oilseed Rape” value [2, 9] of the same molecule?
The value was 45.

And the “Plant response rating, Oilseed Rape” value ([2]; Preemergence, 62 g ai/ha)?
The value was 70.

What about the “Plant response rating, Oilseed Rape” value ([2]; Preemergence, 125 g ai/ha) of the same molecule?
Its value is 90.

And the “Plant response rating, Oilseed Rape” value ([2]; Preemergence, 250 g ai/ha)?
The value was 85.

What about the “Plant response rating, Oilseed Rape” value ([2]; Preemergence, 500 g ai/ha) of the same molecule?
Its value is 90.

And the “Plant response rating (0 to 100), Waterhemp” value ([3]; Postemergence, 62 g ai/ha)?
Its value is 95.

What about the “Plant response rating (0 to 100), Waterhemp” value ([3]; Postemergence, 125 g ai/ha) of the same molecule?
The value was 98.

And the “Plant response rating, Waterhemp” value [3, 8]?
Its value is 98.

And the “Plant response rating, Waterhemp” value [3, 9]?
The value was 100.

What about the “Plant response rating, Waterhemp” value ([3]; Preemergence, 62 g ai/ha) of the same molecule?
Its value is 100.

What about the “Plant response rating, Waterhemp” value ([3]; Preemergence, 125 g ai/ha) of the same molecule?
Its value is 100.

And the “Plant response rating, Waterhemp” value ([3]; Preemergence, 250 g ai/ha)?
Its value is 100.

And the “Plant response rating, Waterhemp” value ([3]; Preemergence, 500 g ai/ha)?
Its value is 100.
